Source: ChEMBL document CHEMBL1201862, “PubChem BioAssay data set” (2004)
Where a name gives a salt, the structure may show the parent alone. Active and inactive are the calls of the source.

Columns and labels:
[1] = biological target: Mitogen-activated protein kinase 10 (Homo sapiens, UniProt P53779); test: Dose response biochemical screening assay for inhibitors of c-Jun N-Terminal Kinase 3 (JNK3). [Related pubchem assays: 746 ]
[2] = biological target: T1, Short transient receptor potential channel 4 (Mus musculus, UniProt Q9QUQ5); test: mouse TRPC4 channel activators, dose response, cell-based, HEK293 TRPC4/mu-opioid, Fluo-4 calcium (AID 434937); format: functional
T1 sequence (Q9QUQ5 whole entry): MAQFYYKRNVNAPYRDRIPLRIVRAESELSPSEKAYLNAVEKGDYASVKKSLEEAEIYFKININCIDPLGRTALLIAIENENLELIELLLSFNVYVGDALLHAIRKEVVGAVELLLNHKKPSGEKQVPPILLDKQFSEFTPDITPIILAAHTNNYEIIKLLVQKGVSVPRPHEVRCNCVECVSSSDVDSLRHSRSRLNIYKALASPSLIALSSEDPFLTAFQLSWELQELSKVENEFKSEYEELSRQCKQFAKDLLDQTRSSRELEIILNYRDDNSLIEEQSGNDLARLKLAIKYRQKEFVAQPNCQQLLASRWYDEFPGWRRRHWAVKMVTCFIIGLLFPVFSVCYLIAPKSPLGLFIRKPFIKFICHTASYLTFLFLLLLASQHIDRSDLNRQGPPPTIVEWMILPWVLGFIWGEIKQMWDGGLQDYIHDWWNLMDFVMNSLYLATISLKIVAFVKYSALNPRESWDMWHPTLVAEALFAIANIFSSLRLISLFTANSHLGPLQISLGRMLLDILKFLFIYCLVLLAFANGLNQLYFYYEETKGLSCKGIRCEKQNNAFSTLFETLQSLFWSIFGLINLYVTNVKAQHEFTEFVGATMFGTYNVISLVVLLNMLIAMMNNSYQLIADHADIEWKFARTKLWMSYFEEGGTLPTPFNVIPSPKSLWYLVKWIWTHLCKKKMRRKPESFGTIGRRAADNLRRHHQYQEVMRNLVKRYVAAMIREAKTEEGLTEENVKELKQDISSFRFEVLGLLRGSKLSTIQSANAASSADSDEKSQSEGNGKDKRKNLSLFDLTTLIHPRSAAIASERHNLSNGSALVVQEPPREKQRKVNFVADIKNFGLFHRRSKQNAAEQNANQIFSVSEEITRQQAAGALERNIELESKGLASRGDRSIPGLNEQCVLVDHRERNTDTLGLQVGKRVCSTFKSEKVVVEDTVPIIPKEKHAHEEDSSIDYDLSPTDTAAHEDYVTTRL

[3] = biological target: T1, Short transient receptor potential channel 4; test: mouse TRPC4 channel inhibitors, dose response, cell-based, HEK293 TRPC4/mu-opioid, Fluo-4 calcium (AID 434942); format: functional;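 further: potency of inhibitors blocking the TRPC4 calcium response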
[4] = biological target: Eukaryotic translation initiation factor 4E (Mus musculus, UniProt P63073); test: eIF4E–eIF4G protein interaction inhibitors, dose response, biochemical, TR-FRET (AID 855); format: functional;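 further: potency for disrupting eIF4E binding to eIF4GI seen as loss of FRET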
Chain of Eukaryotic translation initiation factor 4E (P63073 whole entry): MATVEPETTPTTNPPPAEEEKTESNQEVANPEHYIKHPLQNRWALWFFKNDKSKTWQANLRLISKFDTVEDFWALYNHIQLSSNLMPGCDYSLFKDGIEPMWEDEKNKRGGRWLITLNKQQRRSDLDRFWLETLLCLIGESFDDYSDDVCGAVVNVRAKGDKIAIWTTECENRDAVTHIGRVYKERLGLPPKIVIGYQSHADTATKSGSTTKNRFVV

[5] = inhibitors of intracellular T. cruzi replication, confirmation, NIH3T3 host cells, beta-gal luminescence (AID 2044); format: functional, cell-based;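 further: intracellular parasites grown in NIH/3T3 mouse fibroblasts as host cells; luminescent beta-galactosidase reporter signal from transgenic T. cruzi replicating inside host cells; inhibitors lower the luminescence signal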
[6] = cytotoxicity toward NIH3T3 fibroblasts, dose response, counter-screen, cell-based, ATP luminescence, mouse fibroblasts (AID 2010); format: functional;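 further: cells exposed to compound for about 90 hours before reading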
INS1 = test: beta cell apoptosis inhibitors, cytokine rescue, dose response, luminescence, retest (AID 449756); format: functional, cell-based; settings: Rattus norvegicus;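 further: cell death triggered by IL-1 beta plus TNF-alpha plus IFN-gamma mixture; protective hits raise ATP signal compared with cytokine alone wells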
[7] = biological target: T2, DNA repair protein RAD52 homolog (Homo sapiens, UniProt P43351); format: functional, biochemical
T2 sequence (P43351 whole entry): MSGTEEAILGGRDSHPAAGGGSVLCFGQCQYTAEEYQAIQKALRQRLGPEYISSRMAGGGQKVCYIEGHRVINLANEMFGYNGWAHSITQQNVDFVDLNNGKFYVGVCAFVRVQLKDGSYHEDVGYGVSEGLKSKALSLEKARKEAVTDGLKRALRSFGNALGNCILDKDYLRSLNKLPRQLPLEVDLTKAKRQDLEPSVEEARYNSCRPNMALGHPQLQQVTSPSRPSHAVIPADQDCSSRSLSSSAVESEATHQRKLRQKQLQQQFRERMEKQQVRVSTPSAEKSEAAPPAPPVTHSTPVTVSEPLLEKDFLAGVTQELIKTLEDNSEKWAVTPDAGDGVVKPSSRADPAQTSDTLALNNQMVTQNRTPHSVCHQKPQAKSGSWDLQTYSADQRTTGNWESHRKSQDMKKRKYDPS

cells [8] = format: functional, cell-based
[9] = biological target: T3, Trace amine-associated receptor 1 (Homo sapiens, UniProt Q96RJ0); test: Fluorescence-based cell-based high throughput dose response assay to identify agonists of the human trace amine associated receptor 1 (TAAR1).; format: functional
T3 sequence (Q96RJ0 whole entry): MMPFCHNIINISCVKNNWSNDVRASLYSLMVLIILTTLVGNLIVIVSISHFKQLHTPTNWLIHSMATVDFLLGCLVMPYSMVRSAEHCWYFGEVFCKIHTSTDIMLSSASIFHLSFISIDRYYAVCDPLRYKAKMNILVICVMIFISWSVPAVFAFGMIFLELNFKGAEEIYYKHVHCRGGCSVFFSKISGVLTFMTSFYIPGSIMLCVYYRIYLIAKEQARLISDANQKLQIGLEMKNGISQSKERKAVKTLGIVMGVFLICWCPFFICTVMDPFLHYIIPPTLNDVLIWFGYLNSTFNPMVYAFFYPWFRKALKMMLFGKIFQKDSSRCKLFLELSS

[10] = biological target: T3, Trace amine-associated receptor 1; test: Counterscreen for agonists of the human trace amine associated receptor 1 (hTAAR1): Fluorescence-based cell-based high throughput dose response assay to identify hTAAR1 agonist that also desensitize TAAR1 receptor response.; format: functional
cells [11] = format: functional, cell-based; remark: listed apart in the source
[12] = inhibitors of HIV Env-driven cell fusion, dose response, cherry-pick (AID 652057); format: functional, cell-based
[13] = ZM109 Env clade C HIV-1 fusion inhibitors, dose response, HeLa effector, CEM target cells, luciferase, cherry-pick (AID 652058); format: functional, cell-based
[14] = inhibitors of clade B AD8 Env fusion, dose response, cell-based, cherry-pick (AID 652062); format: functional;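 further: luciferase signal from cell-cell fusion driven by HIV-1 clade B AD8 Env; potency is for inhibitors of fusion seen as a drop in luminescence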
[15] = A549 cell cytotoxicity, dose response, cytotoxicity control, plate reader, cherry-pick, antagonist series (AID 743412); format: functional, cell-based
[16] = biological target: T4, DNA repair and recombination protein RAD54-like (Homo sapiens, UniProt Q92698); test: inhibitors of human RAD54 branch migration, confirmation, biochemical, fluorescence, cherry-picked samples, dose series (AID 651657); format: functional
T4 sequence (Q92698 whole entry): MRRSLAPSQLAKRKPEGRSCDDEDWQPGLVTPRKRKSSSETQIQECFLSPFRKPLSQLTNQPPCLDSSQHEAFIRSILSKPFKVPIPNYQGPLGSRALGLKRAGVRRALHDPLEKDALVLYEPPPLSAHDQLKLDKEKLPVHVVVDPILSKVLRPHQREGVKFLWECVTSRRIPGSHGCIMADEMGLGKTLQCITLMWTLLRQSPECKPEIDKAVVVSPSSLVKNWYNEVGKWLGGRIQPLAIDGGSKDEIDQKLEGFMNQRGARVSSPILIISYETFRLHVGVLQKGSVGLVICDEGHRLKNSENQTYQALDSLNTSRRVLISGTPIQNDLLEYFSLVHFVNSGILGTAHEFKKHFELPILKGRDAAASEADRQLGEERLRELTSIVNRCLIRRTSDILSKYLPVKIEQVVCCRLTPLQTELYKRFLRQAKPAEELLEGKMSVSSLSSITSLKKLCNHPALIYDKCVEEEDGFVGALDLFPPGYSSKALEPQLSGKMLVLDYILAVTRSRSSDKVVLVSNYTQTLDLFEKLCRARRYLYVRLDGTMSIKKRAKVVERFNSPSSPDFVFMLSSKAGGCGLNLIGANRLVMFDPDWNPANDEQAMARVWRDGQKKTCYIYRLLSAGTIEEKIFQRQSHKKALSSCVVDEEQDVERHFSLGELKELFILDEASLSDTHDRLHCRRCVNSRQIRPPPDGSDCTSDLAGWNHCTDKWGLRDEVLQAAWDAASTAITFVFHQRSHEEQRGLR

Large T antigen = Large T antigen (Simian virus 40, UniProt P03070); format: functional, Betapolyomavirus macacae;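 further: Confirmatory-stage PubChem screen for compounds that inhibit SV40 T antigen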
Chain of Large T antigen (P03070 whole entry): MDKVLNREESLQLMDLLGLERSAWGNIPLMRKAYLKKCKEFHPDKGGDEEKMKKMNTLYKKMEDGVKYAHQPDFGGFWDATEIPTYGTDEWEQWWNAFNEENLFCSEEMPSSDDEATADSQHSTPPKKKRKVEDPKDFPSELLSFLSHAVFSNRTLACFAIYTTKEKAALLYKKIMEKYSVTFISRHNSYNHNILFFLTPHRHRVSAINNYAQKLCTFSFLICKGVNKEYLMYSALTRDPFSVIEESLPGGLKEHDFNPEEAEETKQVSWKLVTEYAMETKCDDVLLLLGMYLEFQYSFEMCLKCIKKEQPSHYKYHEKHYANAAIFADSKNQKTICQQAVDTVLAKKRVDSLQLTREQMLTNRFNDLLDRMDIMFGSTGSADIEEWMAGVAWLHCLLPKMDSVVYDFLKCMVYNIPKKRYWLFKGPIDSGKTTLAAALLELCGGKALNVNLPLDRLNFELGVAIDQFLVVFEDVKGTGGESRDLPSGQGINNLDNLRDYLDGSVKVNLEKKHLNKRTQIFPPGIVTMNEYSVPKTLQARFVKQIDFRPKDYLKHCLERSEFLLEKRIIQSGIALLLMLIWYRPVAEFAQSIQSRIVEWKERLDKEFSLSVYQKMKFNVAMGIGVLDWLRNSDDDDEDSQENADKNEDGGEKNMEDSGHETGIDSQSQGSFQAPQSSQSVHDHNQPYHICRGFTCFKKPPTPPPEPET

[17] = biological target: FAD-linked sulfhydryl oxidase ALR (Homo sapiens, UniProt P55789); test: inhibitors of human ALR sulfhydryl oxidase, dose response, biochemical, H2O2 detection, luminescence, cherry-pick (AID 493248)
Chain of FAD-linked sulfhydryl oxidase ALR (P55789 whole entry): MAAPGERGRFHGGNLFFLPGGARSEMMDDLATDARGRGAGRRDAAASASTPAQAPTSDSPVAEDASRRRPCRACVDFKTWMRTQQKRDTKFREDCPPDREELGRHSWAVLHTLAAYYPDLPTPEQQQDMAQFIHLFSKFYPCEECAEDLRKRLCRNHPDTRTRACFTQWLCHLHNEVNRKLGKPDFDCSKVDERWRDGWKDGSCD

Chain of Mitogen-activated protein kinase 10 (P53779 whole entry): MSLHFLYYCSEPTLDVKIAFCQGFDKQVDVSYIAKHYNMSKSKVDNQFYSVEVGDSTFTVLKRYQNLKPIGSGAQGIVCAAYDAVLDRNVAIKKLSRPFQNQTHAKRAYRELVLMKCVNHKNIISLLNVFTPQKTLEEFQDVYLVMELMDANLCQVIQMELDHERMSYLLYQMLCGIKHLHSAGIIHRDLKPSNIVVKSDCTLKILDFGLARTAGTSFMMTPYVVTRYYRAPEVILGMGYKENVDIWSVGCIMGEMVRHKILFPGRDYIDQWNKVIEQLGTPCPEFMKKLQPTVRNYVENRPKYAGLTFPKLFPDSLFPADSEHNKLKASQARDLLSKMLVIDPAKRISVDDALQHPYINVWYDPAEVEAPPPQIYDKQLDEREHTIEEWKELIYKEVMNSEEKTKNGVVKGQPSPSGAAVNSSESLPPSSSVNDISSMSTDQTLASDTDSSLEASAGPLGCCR

SMILES: O=C(CCCn1c(=S)[nH]c2ccccc2c1=O)NCc1ccco1
- IC50 [1]: 49.2 µM (not active)

SMILES: CN(CCc1ccccn1)C1CC(=O)N(c2ccc(Cl)cc2)C1=O (configuration not stated)
- EC50 [2]: 2.11 µM (active)

SMILES: O=C(NC1CC1)C1=C[C@H](C2CCCCC2)C[C@H](OCc2ccc(CO)cc2)O1
- EC50 [3]: 5.31 µM (active)
- EC50 [2]: 4.22 µM (active)

SMILES: O=C(O)CSc1nnc(COc2cccc3cccnc23)n1-c1cccc(C(F)(F)F)c1
- IC50 [4]: 50 µM (inactive)

SMILES: CCOC(=O)c1c(C)[nH]c2ccc(O)cc12
- IC50 [1]: > 93.1 µM (not active)

SMILES: CCOC(=O)c1c(NC(=O)C[n+]2ccc(Cc3ccccc3)cc2)sc(C)c1C
- EC50 [5]: 1.83 µM (active)
- EC50 [6]: > 60 µM (not active)
- AC50 (INS1): 5.35 µM (active)
- AC50 [7]: 20.5 µM (active)

SMILES: N#CCCSc1ncnc2c1oc1ccccc12
- IC50 [1]: 27.7 µM (not active)

SMILES: CN1CCN(CCCC(=O)c2ccc(C3CCCC3)cc2)CC1
- AC50 [7]: 19.7 µM (active)

SMILES: Cn1nnnc1SCc1ccc(C(=O)Nc2nccs2)cc1
- IC50 [1]: 56.9 µM (not active)

SMILES: COc1ccc(C(CNC(=O)c2cc(SC)ccc2Cl)N(C)C)cc1 (configuration not stated)
- EC50 [2]: 0.944 µM (active)

SMILES: O=C(O)C1C2C=CC(C2)C1C(=O)NCCC1=CCCCC1 (configuration not stated)
- IC50 (cells [8]): > 29.9 µM (inactive)
- EC50 [9]: 0.916 µM (active)
- IC50 [10]: > 29.9 µM (inactive)
- EC50 (cells [11]): > 29.9 µM (inactive)

SMILES: CCOC(=O)[C@]12CCCC=C1N(CCC1=CCCCC1)C(=O)[C@H](CC(=O)NCCc1ccccc1OC)C2
- IC50 (cells [8]): 26.9 µM (inactive)
- EC50 [9]: 3.59 µM (active)
- IC50 [10]: 5.92 µM (active)
- EC50 (cells [11]): > 29.9 µM (inactive)

SMILES: O=C(NCCc1ccc(O)cc1)c1[nH]c(C(F)(F)F)nc1-c1ccccc1
- IC50 (cells [8]): > 29.9 µM (inactive)
- EC50 [9]: 0.485 µM (active)
- IC50 [10]: 5.53 µM (active)
- EC50 (cells [11]): > 29.9 µM (inactive)

SMILES: C[C@@H]1CN([C@@H](C)CO)C(=O)c2ccccc2-c2ccccc2CO[C@@H]1CN(C)C(=O)Nc1ccc2c(c1)OCO2
- AC50 [12]: 0.318 µM (active)
- AC50 [13]: 0.54 µM (active)
- AC50 [14]: 1.6 µM (active)

SMILES: COCC(=O)N[C@@H]1CC[C@@H](CC(=O)NCc2ccccc2OC)O[C@@H]1CO
- AC50 [15]: > 52 µM (inactive)

SMILES: NCCCCCC(=O)N/N=C/c1ccc2nccnc2c1
- AC50 [7]: 16.3 µM (active)

SMILES: COc1ccccc1Nc1nc(NCC2CCCO2)c2ccccc2n1 (configuration not stated)
- EC50 [5]: 0.194 µM (active)
- EC50 [6]: > 60 µM (not active)
- EC50 [3]: 2.66 µM (active)
- AC50 [16]: 81.9 µM (active)

SMILES: Oc1ccc(C2CNCCc3c2cc(O)c(O)c3Cl)cc1 (configuration not stated) [FENOLDOPAM MESYLATE]
- IC50 (Large T antigen): > 100 µM (active)
- AC50 [17]: 1.37 µM (active)
- IC50 (cells [8]): > 29.9 µM (inactive)
- EC50 [9]: 2.7 µM (active)
- AC50 [7]: 21.7 µM (active)
- IC50 [10]: 8.04 µM (active)
- EC50 (cells [11]): > 29.9 µM (inactive)
